Test results from patent US20060029644A1, “In vitro biochemical reactions with free anhydrous D-ribose” (priority 2004, published 2006).
Entries after “also recorded” stand apart in the source; their conditions may differ. Each block holds one compound with its values, some of them ahead of it.

Key:
[1] = taken in 20 grams or less a day; cited from earlier work
[2] = stability of the powder on heating; format: physicochemical; settings: for stability of the powder when heated: 150° F., heated alone or mixed with each other
solubility in water = format: physicochemical

temperature to which the powder can be heated without losing its powdery form [2]: < 120 ° F.
stability of the powder when heated [2]: unstable
SMILES: O=C[C@H](O)[C@H](O)[C@H](O)CO [anhydrous D-ribose]
toxicity [1]: extremely low toxicity

SMILES: O=C(CO)[C@@H](O)[C@H](O)[C@H](O)CO [fructose, reference compound]
stability of the powder when heated [2]: remain powders

stability of the powder when heated [2]: remain powders
SMILES: OC[C@H]1O[C@@H](O[C@H]2[C@H](O)[C@@H](O)C(O)O[C@@H]2CO)[C@H](O)[C@@H](O)[C@H]1O (stereo partly drawn) [lactose, reference compound]

solubility in water (solubility in water; listed as monohydrate): very soluble in water
stability compared with the anhydrous powder ([2]; especially with water, sugars and some consumable monohydrates): far more stable
SMILES: O.O=C[C@H](O)[C@H](O)[C@H](O)CO [ribose monohydrate, D-ribose monohydrate]
solubility in water (solubility in water; monohydrate): highly soluble in water; also recorded: extreme solubility; also recorded: highest possible solubility in water

stability of the powder when heated [2]: remain powders
SMILES: OC[C@H]1O[C@@](CO)(O[C@H]2O[C@H](CO)[C@@H](O)[C@H](O)[C@H]2O)[C@@H](O)[C@@H]1O [sucrose, reference compound]
